Laboratory results: patent US12391664B2, “GluN2C/D subunit selective antagonists of the N-methyl-D-aspartate receptor” (Emory University, priority 2018, dated 2025)

Columns and labels:
[1] = target: NMDA receptors that contain GluN2B (Homo sapiens, UniProt Q05586+Q13224); details: cited from earlier work
GluN2C- and GluN2D = details: GluN2C- and GluN2D-selective potentiator; read-out: EC50 (potentiation); cited from earlier work
GluN2C subunit = GluN2C subunit (Homo sapiens, UniProt Q14957); details: read-out: EC50 (potentiation at GluN2C subunit); cited from earlier work
Sequence of GluN2C subunit (Q14957 20-1233, other chains not shown): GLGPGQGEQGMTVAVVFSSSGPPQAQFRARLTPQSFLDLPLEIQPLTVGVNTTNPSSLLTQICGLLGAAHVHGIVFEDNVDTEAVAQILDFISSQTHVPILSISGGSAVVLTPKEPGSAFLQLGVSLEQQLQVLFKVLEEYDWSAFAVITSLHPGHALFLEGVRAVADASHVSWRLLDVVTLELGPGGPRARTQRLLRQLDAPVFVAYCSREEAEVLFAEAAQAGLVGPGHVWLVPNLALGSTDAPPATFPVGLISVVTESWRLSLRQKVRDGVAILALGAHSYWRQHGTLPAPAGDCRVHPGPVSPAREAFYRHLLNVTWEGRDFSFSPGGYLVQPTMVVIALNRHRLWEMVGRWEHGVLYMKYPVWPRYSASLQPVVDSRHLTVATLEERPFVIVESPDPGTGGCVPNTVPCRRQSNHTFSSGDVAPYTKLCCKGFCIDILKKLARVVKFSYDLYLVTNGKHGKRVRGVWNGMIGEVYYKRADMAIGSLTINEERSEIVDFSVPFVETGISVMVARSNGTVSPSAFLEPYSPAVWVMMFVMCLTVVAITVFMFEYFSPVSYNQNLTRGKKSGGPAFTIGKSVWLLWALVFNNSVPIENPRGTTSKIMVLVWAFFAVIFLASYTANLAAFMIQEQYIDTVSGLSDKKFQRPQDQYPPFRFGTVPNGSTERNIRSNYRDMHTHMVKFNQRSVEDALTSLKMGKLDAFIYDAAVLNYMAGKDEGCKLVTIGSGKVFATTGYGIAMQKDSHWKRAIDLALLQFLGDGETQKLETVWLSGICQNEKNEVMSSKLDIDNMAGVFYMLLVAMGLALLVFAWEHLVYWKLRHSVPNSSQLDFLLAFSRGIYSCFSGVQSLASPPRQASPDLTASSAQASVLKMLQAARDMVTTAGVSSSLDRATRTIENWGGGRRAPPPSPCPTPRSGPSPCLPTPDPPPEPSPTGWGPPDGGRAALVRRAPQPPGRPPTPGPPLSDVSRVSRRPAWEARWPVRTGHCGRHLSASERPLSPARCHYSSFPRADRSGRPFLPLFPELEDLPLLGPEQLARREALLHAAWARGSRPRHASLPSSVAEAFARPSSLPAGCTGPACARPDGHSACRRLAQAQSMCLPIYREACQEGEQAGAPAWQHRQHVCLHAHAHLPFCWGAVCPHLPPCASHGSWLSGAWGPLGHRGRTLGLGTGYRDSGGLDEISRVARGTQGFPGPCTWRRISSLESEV

[2] = target: T1, recombinant rat GluN1/GluN2C (Rattus norvegicus, UniProt Q00961); assay: Two-electrode voltage-clamp recordings in Xenopus laevis oocytes, GluN2C; format: cell-based; details: oocytes, 100 μM glutamate and 30 μM glycine
T1 construct: expressed in transfected cells; host or cells: Xenopus laevis oocytes injected with cRNA (GluN1:GluN2 ratio 1:2)
Method in brief: (§1)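 Oocytes injected with rat GluN1/GluN2 cRNA (1:2), held 2–5 days at 15–17 °C, clamped at −40 mV in Ba2+-containing recording solution, pH 7.4, 23 °C. Compounds applied (up to 100 μM) with 100 μM glutamate plus 30 μM glycine. IC50 and Hill slope from concentration-response fits of averaged current inhibition.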

[3] = target: T2, recombinant rat GluN1/GluN2A (Rattus norvegicus, UniProt Q00959); assay: Two-electrode voltage-clamp recordings in Xenopus laevis oocytes, GluN2A; format: cell-based; details: oocytes, 100 μM glutamate and 30 μM glycine
T2 construct: expressed in transfected cells; host or cells: Xenopus laevis oocytes injected with cRNA (GluN1:GluN2 ratio 1:2)
T2 sequence (Q00959 23-1464, other chains not shown): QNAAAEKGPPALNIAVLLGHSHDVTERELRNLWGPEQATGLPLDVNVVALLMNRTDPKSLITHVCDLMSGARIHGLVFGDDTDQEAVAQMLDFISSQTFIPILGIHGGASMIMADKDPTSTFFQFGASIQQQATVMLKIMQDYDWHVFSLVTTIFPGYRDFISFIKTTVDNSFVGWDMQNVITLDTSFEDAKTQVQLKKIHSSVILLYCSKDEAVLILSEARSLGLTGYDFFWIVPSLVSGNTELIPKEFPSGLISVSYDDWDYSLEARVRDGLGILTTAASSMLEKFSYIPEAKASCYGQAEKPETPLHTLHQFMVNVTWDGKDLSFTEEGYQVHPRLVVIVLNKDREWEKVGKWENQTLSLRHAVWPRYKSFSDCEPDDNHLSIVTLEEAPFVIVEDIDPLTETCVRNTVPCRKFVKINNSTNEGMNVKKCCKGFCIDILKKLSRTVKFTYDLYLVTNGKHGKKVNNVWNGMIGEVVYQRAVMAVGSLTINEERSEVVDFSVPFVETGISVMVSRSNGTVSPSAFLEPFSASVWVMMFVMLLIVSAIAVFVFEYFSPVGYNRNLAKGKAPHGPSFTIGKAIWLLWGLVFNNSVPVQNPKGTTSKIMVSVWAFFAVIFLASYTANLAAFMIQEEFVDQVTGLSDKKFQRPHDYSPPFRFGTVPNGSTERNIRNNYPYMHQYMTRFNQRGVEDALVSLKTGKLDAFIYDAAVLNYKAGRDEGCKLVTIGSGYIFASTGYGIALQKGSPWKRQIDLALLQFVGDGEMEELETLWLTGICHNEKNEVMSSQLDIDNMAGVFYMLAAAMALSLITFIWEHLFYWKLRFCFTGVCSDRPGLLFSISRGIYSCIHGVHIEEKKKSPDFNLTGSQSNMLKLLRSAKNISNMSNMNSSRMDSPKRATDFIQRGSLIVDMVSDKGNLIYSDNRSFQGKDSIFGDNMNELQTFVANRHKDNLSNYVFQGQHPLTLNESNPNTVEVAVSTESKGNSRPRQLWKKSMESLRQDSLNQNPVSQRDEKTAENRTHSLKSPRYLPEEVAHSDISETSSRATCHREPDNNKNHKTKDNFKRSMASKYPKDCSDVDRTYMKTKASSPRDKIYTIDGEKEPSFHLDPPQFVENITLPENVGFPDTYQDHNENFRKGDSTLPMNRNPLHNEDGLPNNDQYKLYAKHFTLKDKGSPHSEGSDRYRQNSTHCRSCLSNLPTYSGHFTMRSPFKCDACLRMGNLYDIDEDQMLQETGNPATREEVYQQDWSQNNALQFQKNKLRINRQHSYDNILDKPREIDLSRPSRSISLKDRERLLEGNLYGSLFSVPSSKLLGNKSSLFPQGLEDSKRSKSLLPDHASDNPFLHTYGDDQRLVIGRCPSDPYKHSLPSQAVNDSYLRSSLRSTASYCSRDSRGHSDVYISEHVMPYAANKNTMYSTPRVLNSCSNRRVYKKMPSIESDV
Method in brief: as §1

[4] = target: T3, recombinant rat GluN1/GluN2D (Rattus norvegicus, UniProt Q62645); assay: Two-electrode voltage-clamp recordings in Xenopus laevis oocytes, GluN2D; format: cell-based; details: oocytes, 100 μM glutamate and 30 μM glycine
T3 construct: expressed in transfected cells; host or cells: Xenopus laevis oocytes injected with cRNA (GluN1:GluN2 ratio 1:2)
Method in brief: as §1

[5] = system: recombinant GluN2A-D subunits; assay: Two-electrode voltage-clamp recordings, statements on all receptors; format: cell-based, rat
Protocol: All target compounds were evaluated for activity by the Traynelis laboratory at Emory University using two-electrode voltage-clamp recordings performed in Xenopus laevis oocytes expressing recombinant GluN2A-D subunits (Table 1). […] Two ester compounds 997-65 and 997-66 also performed no inhibition at GluN2A to GluN2D receptors. […] Consequently, for the compounds that Acker et al. already published, it was necessary to increase the concentration to 100 μM when collecting data for a concentration effect curve. […] Therefore, under this condition, we can only conclude that compound 997-67 remained potent at GluN2C/D-containing receptors, but its selectivity over GluN2A- and GluN2B-containing receptors could not be compared to 997-57. […] Finally, replacing the carboxylic acid to the bio-isostere amide yielded compounds 997-96 and 997-115, which dropped the potency 2- to 4-fold in comparison to their corresponding acids 997-74 and 997-114.
Two-electrode voltage-clamp recordings were performed in Xenopus laevis oocytes that were injected with mRNA to express recombinant rat GluN1/GluN2A, GluN1/GluN2B, GluN1/GluN2C, and GluN1/GluN2D. The recordings using unfertilized oocytes from Xenopus laevis were permitted by Emory University Institutional Animal Care and Use Committee (IACUC). An automatic injector (Nanoject II, Drummond Scientific) was used for cRNA injection using the pipettes filled with mineral oil. The cRNA that transcribed in vitro via the mMessage Machine kit (Ambion) was diluted with nuclease-free water, and then injected at GluN1/GluN2 with a ratio of 1:2. The oocytes were stored in Barth's solution that contained 88 mM NaCl, 5.0 mM Tris-HCl, 2.4 mM NaHCO3, 1.0 mM KCl, 0.84 mM MgSO4, 0.41 mM CaCl2, 0.33 mM Ca(NO3)2, 0.1 mg/ml gentamycin sulfate, 1.0 U/ml penicillin, and 1 μg/ml streptomycin at a pH of 7.4 and temperatures of 15-17° C. for two to five days before the two-electrode voltage-clamp recordings. When recording, the oocytes were placed in a perfusion chamber and continually washed with the recording solution comprised of 90 mM NaCl, 1.0 mM KCl, 0.50 mM BaCl2, 0.005 mM EDTA, and 10 mM HEPES at a pH of 7.4 and a temperature of 23° C. Glass electrodes with a tip resistance of 0.5 to 2.5 MΩ were obtained from thin-walled glass capillary tubes. Voltage electrodes and current electrodes were filled with 0.3 M and 3.0 M KCl, respectively. The recordings were executed with the oocytes membrane potential holding at −40 m V by an OC-725 amplifier (Warner Instrument Co). All compounds were dissolved in dimethyl sulfoxide (DMSO) as 20 mM stock solutions and future diluted to reach the desired concentration (0.05-0.5% (vol/vol) DMSO) in recording solution comprised of 30 μM glycine and 100 μM glutamate. Each compound was recorded 3-7 times in the least 4 oocytes from at least 2 different Xenopus laevis.
To evaluate the inhibition of compounds, the concentration-response curve was fitted with the average two-electrode voltage-clamp recording results with the equation
[formula] • where IC50 is the concentration of compounds that inhibit half maximal of the current response and N is the Hill slope.

[6] = target: T4, recombinant rat GluN1/GluN2B (Rattus norvegicus, UniProt Q00960); assay: Two-electrode voltage-clamp recordings in Xenopus laevis oocytes, GluN2B; format: cell-based; details: oocytes, 100 μM glutamate and 30 μM glycine
T4 construct: expressed in transfected cells; host or cells: Xenopus laevis oocytes injected with cRNA (GluN1:GluN2 ratio 1:2)
Method in brief: as §1

Sequence of NMDA receptors that contain GluN2B (Q13224 27-1484, other chains not shown): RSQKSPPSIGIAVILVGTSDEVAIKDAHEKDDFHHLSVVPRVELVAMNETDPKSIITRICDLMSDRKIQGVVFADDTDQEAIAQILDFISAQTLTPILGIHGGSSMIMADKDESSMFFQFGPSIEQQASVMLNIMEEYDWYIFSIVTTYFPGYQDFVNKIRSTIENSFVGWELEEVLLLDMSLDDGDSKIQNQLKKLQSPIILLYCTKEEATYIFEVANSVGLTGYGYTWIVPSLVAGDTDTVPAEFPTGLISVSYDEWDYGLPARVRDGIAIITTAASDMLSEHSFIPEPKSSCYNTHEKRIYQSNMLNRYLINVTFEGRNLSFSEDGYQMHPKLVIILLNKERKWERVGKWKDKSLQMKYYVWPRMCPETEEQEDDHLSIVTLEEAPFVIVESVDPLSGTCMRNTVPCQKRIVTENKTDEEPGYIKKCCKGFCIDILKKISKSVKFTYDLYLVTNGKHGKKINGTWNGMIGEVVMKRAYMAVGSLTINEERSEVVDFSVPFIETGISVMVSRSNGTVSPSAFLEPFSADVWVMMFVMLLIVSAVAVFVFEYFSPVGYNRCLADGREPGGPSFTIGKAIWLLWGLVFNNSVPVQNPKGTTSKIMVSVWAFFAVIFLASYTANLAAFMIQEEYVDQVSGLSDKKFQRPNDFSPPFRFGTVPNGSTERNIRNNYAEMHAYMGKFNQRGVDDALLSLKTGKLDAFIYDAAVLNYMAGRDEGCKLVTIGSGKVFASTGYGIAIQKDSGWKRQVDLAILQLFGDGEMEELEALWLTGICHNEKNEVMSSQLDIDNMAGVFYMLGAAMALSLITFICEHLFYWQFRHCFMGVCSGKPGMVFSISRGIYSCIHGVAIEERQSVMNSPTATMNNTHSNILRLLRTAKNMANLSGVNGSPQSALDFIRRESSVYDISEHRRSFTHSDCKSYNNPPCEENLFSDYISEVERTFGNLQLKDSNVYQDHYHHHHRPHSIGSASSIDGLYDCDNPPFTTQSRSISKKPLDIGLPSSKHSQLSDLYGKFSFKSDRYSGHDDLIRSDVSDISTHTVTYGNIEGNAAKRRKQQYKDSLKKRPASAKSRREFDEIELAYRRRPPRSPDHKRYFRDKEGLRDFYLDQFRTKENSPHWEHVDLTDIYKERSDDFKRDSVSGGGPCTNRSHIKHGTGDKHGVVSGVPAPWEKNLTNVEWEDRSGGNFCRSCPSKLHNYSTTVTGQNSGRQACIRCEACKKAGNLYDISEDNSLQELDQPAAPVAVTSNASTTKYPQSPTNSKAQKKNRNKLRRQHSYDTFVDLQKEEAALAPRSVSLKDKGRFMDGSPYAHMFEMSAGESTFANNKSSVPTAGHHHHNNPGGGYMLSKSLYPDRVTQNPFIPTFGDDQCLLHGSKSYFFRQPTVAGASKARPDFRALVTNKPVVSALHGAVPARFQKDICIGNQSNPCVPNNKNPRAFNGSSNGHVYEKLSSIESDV

CC(C(O)c1ccc(O)cc1)N1CCC(Cc2ccccc2)CC1 (centres unmarked) [Ifenprodil]
fold more potent at GluN2B than at GluN2A, GluN2C or GluN2D containing receptors [1]: approximately 200 fold

COc1ccc(OCC2c3cc(OC)c(OC)cc3CCN2C(=O)c2cccc(Cl)c2)cc1 (centres unmarked) [CIQ, (3-chlorophenyl)(6,7-dimethoxy-1-((4-methoxyphenoxy)methyl)3,4-dihydroisoquinolin-2(1H)-yl)methanone]
EC50 (GluN2C- and GluN2D): 3 to 6 µM

COC(=O)c1ccc(C2C(C(C)=O)=C(O)C(=O)N2CCc2c(C)[nH]c3ccccc23)cc1 (centres unmarked) [PYD-106]
EC50 (GluN2C subunit): 13 µM

O=C(O)CCC(=O)N1N=C(c2c(-c3ccc(Cl)cc3)c3ccccc3[nH]c2=O)CC1c1cccnc1 (centres unmarked) [997-83, 4-(3-(4-(4-chlorophenyl)-2-oxo-1,2-dihydroquinolin-3-yl)-5-(pyridin-3-yl)-4,5-dihydro-1H-pyrazol-1-yl)-4-oxobutanoic acid]
GluN2C IC50 [2]: NE (NE indicates less than 50% inhibition at 30 μM.) | GluN2A IC50 [3]: NE (NE indicates less than 50% inhibition at 30 μM.) | GluN2D IC50 [4]: NE (NE indicates less than 50% inhibition at 30 μM.) | activity at all receptors (GluN2A to GluN2D), in words [5]: inactive | GluN2B IC50 [6]: NE (NE indicates less than 50% inhibition at 30 μM.)
